# Measurements as given in patent publication US10206398B2, “Five-membered C-N-attached aryl sulphide and aryl sulphoxide derivatives as pesticides” (BAYER CROPSCIENCE AKTIENGESELLSCHAFT, priority 2014, dated 2019).
# Where two headings read alike, the source gives them in different places.
# Assays:
# [1] = log P determination by HPLC on reversed-phase columns (C 18), analogous to OECD Guideline 117; assay type: physicochemical; settings: for logP[a]: method [a]; for logP[b]: method [b]; for chromatographic logP: reversed-phase HPLC column (C 18)
# Summary of the method: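 Reversed-phase C18 HPLC per OECD 117, two conditions: [a] pH 2.7, 0.1% formic acid water/acetonitrile, log P(HCOOH); [b] pH 7.8, 0.001 M ammonium hydrogencarbonate/acetonitrile, log P(neutral). Both use a 10–95% acetonitrile gradient; values are interpolated from retention times against C3–C16 unbranched alkan-2-ones.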
# Tetranychus urticae = Tetranychus urticae - spray test, OP-resistant (bean leaf discs, 6 days); assay type: in vivo; settings: after 6 days; for pest or weed control at 500 g/ha: Tetranychus urticae, foliar, 144 h, read-out: efficacy (spider mites killed)
# Summary of the method: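 Bean leaf discs carrying all stages of OP-resistant Tetranychus urticae were sprayed with compound formulated in acetone/DMF and diluted in water with 1000 ppm emulsifier. Mortality was scored after 6 days as % efficacy, where 100% means all mites were killed.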
# Boophilus microplus = Boophilus microplus - injection test; assay type: in vivo; settings: 20 μg/animal, injection into engorged adult female cattle ticks, assessed after 7 days
# Procedure: 1. Boophilus microplus—Injection Test
# Solvent: dimethyl sulphoxide
# To produce a suitable preparation of active compound, 10 mg of active compound are mixed with 0.5 ml of solvent and the concentrate is diluted with solvent to the desired concentration.
# 1 μl of the active compound solution is injected into the abdomen of 5 engorged adult female cattle ticks (Boophilus microplus). The animals are transferred into dishes and kept in a climate-controlled room.
# Efficacy is assessed after 7 days by laying of fertile eggs. Eggs which are not visibly fertile are stored in a climate-controlled cabinet until the larvae hatch after about 42 days. An efficacy of 100% means that none of the ticks has laid any fertile eggs; 0% means that all the eggs are fertile.
# Meloidogyne incognita = Meloidogyne incognita - test; assay type: in vivo; settings: 20 ppm, lettuce, after 14 days
# Procedure: 2. Meloidogyne incognita—Test Solvent: 125.0 parts by weight of acetone To produce a suitable preparation of active compound, 1 part by weight of active compound is mixed with the stated amount of solvent and the concentrate is diluted with water to the desired concentration. Vessels are filled with sand, active compound solution, an egg/larvae suspension of the southern root-knot nematode (Meloidogyne incognita) and lettuce seeds. The lettuce seeds germinate and the plants develop. The galls develop on the roots. After 14 days, the nematicidal efficacy in % is determined by the formation of galls. 100% means that no galls were found; 0% means that the number of galls on the treated plants corresponds to the untreated control.
# Phaedon cochleariae = Phaedon cochleariae - spray test; assay type: in vivo; settings: 500 g/ha, Chinese cabbage leaf discs, after 7 days
# Procedure: 4. Phaedon cochleariae—Spray Test
# Solvent: 78.0 parts by weight of acetone
# • 1.5 parts by weight of dimethylformamide Emulsifier: alkylaryl polyglycol ether
# To produce a suitable preparation of active compound, 1 part by weight of active compound is dissolved using the stated parts by weight of solvent and made up with water containing an emulsifier concentration of 1000 ppm until the desired concentration is attained. To produce further test concentrations, the preparation is diluted with emulsifier-containing water.
# After 7 days, the efficacy in % is determined. 100% means that all the beetle larvae have been killed; 0% means that no beetle larvae have been killed.
# [2] = pH 2.7, HPLC, acidic range, pH 2.7, 0.1% aqueous formic acid and acetonitrile, read-out: log P(HCOOH)
# [3] = pH 2.7, method [a], read-out: logP[a]
# [4] = pH 7.8, HPLC, neutral range, pH 7.8, 0.001 molar aqueous ammonium hydrogencarbonate and acetonitrile, read-out: log P(neutral)
# [5] = pH 7.8, method [b], read-out: logP[b]
Structure (SMILES),logP[a] [1],logP[b] [1],efficacy (spider mites killed) (Tetranychus urticae; 500 g/ha) [%],efficacy (laying of fertile eggs) (Boophilus microplus) [%],nematicidal efficacy (formation of galls) (Meloidogyne incognita) [%],efficacy (spider mites killed) (Tetranychus urticae; 100 g/ha) [%],efficacy (beetle larvae killed) (Phaedon cochleariae) [%],"chromatographic logP [1, 2]","chromatographic logP [1, 3]","chromatographic logP [1, 4]","chromatographic logP [1, 5]",pest or weed control at 500 g/ha (Tetranychus urticae; 500 g/ha) [%]
Cc1cc(F)c(N2C(=O)C(C)N(C(=O)NCC(C)C)C2=O)cc1[S+]([O-])CC(F)(F)F (mixture of isomers) [compound 89],3.10,3.02,100,100,,,,,,,,
Cc1cc(F)c(N2C(=O)CN(C(=O)NCC3CCCO3)C2=O)cc1[S+]([O-])CC(F)(F)F (mixture of isomers) [compound 91],2.19,2.13,100,100,,,,,,,,
Cc1cc(F)c(N2C(=O)CN(C(=O)NC(C)(C)C)C2=O)cc1[S+]([O-])CC(F)(F)F (racemic) [compound 68],2.84,2.75,100,100,90,,,,,,,
Cc1cc(C)c([S+]([O-])CC(F)(F)F)cc1N1C(=O)CN(C(=O)Nc2ccc(F)cc2)C1=O (racemic) [compound 99],3.01,2.92,,100,90,90,,,,,,
Cc1cc(C)c([S+]([O-])CC(F)(F)F)cc1N1C(=O)CN(C(=O)Nc2ccccn2)C1=O (racemic) [compound 118],2.46,2.50,,,,,100,,,,,
"Cc1cc(F)c(N2C(=O)CN(C(=O)NC3CC3)C2=O)cc1SCC(F)(F)F [Ex. No. 1, N-Cyclopropyl-3-[2-fluoro-4-methyl-5-(2,2,2-trifluoroethylsulphanyl)phenyl]-2,4-dioxoimidazolidine-1-carboxamide]",,,,100,90,,,3.07,3.07,2.98,2.98,100
Cc1cc(F)c(N2C(=O)CN(C(=O)NC(C)C)C2=O)cc1SCC(F)(F)F [Ex. No. 7],3.34,3.29,100,100,90,,,,,,,
"Cc1cc(F)c(N2C(=O)CN(C(=O)NCC(C)C)C2=O)cc1[S+]([O-])CC(F)(F)F (stereo not drawn) [Ex. No. 15, 3-[2-Fluoro-4-methyl-5-(2,2,2-trifluoroethylsulphinyl)phenyl]-N-isobutyl-2,4-dioxoimidazolidine-1-carboxamide]",,,,100,,,,2.72,2.72,2.66,2.66,100
"CCNC(=O)N1C(=O)N(c2cc([S+]([O-])CC(F)(F)F)c(C)cc2F)C(=O)C1C (stereo not drawn) [Ex. No. 27, N-Ethyl-3-[2-fluoro-4-methyl-5-(2,2,2-trifluoroethylsulphinyl)phenyl]-5-methyl-2,4-dioxoimidazolidine-1-carboxamide]",,,,100,,,,2.42,2.42,2.39,2.39,100
"Cc1cc(F)c(N2C(=O)CN(C(=O)NCC(F)(F)F)C2=O)cc1SCC(F)(F)F [Ex. No. 30, 3-[2-Fluoro-4-methyl-5-(2,2,2-trifluoroethylsulphanyl)phenyl]-2,4-dioxo-N-(2,2,2-trifluoroethyl)imidazolidine-1-carboxamide]",,,,,,,83,3.28,3.28,3.21,3.21,90
"Cc1cc(F)c(N2C(=O)CN(C(=O)NCC(F)(F)F)C2=O)cc1[S+]([O-])CC(F)(F)F (stereo not drawn) [Ex. No. 36, 3-[2-Fluoro-4-methyl-5-(2,2,2-trifluoroethylsulphinyl)phenyl]-2,4-dioxo-N-(2,2,2-trifluoroethyl)imidazolidine-1-carboxamide]",,,,100,90,,,2.46,2.46,2.42,2.41,100
CCNC(=O)N1CC(=O)N(c2cc(SCC(F)(F)F)c(C)cc2F)C1=O [compound 6],2.98,2.93,100,100,90,,,,,,,
CCNC(=O)N1CC(=O)N(c2cc([S+]([O-])CC(F)(F)F)c(C)cc2F)C1=O (stereo not drawn) [compound 9],2.05,2.05,100,100,100,,,,,,,
Cc1cc(F)c(N2C(=O)CN(C(=O)NC(C)C)C2=O)cc1[S+]([O-])CC(F)(F)F (stereo not drawn) [compound 10],2.40,2.38,100,100,100,,,,,,,
Cc1cc(F)c(N2C(=O)CN(C(=O)NCc3ccccc3)C2=O)cc1[S+]([O-])CC(F)(F)F (stereo not drawn) [compound 21],2.77,2.71,100,100,90,,,,,,,
Cc1cc(C)c([S+]([O-])CC(F)(F)F)cc1N1C(=O)CN(C(=O)NC(C)C)C1=O (stereo not drawn) [compound 23],2.52,2.45,,100,100,,,,,,,
Cc1cc(F)c(N2C(=O)C(C)N(C(=O)NC3CC3)C2=O)cc1[S+]([O-])CC(F)(F)F (stereo not drawn) [compound 28],2.46,2.42,100,100,,,,,,,,
Cc1cc(F)c(N2C(=O)C(C)N(C(=O)NC(C)C)C2=O)cc1[S+]([O-])CC(F)(F)F (stereo not drawn) [compound 29],2.77,2.73,100,100,,,,,,,,
Cc1cc(F)c(N2C(=O)CN(C(=O)Nc3cccc(CC(F)(F)F)c3)C2=O)cc1SCC(F)(F)F [compound 37],4.32,4.24,100,,,,83,,,,,
Cc1cc(C)c(N2C(=O)CN(C(=O)NCC(F)(F)F)C2=O)cc1SCC(F)(F)F [compound 38],3.46,3.33,100,,,,100,,,,,
Cc1cc(F)c(N2C(=O)CN(C(=O)Nc3ccc(F)cc3)C2=O)cc1[S+]([O-])CC(F)(F)F (stereo not drawn) [compound 41],2.92,2.86,100,100,,,,,,,,
Cc1cc(F)c(N2C(=O)CN(C(=O)Nc3cccc(F)c3)C2=O)cc1SCC(F)(F)F [compound 42],3.90,3.94,100,100,90,,,,,,,
CCC(C)NC(=O)N1CC(=O)N(c2cc([S+]([O-])CC(F)(F)F)c(C)cc2F)C1=O (stereo not drawn) [compound 47],2.70,2.65,100,100,100,,,,,,,
Cc1cc(Cl)c(N2C(=O)CN(C(=O)NC3CC3)C2=O)cc1[S+]([O-])CC(F)(F)F (stereo not drawn) [compound 62],2.38,2.29,100,100,,,,,,,,
Cc1cc(Cl)c(N2C(=O)CN(C(=O)NCC(F)(F)F)C2=O)cc1[S+]([O-])CC(F)(F)F (stereo not drawn) [compound 63],2.66,2.58,100,100,,,,,,,,
